Laboratory results published in PubChem BioAssay AID248 (DTP/NCI, 2004).
Values joined by “and” are separate entries in the source; they are usually repeats but may differ in a detail not shown here. Equal values may be shown once. Toxic doses and inconclusive results are not listed. No stated cut-off is given here; in the data, active means T/C of 150% or more; inactive means T/C below 125%.

System: L1210 leukemia ip in BDF1 mice, survival T/C
Assay: NCI In Vivo Anticancer Drug Screen. Data for tumor model L1210 Leukemia (intraperitoneal) in B6D2F1 (BDF1) mice
Settings: endpoint: mean survival time, higher = longer survival
Summary of the method: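 In this screen, tumor-bearing mice given compound are compared to those given vehicle, and their survival values are reported as a treated-to-control quotient.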

[1] = dose: 100.0 mg/kg/injection, schedule: Q01DX001 (ip), vehicle: saline
[2] = dose: 200.0 mg/kg/injection, schedule: Q01DX001 (ip), vehicle: saline
[3] = dose: 400.0 mg/kg/injection, schedule: Q01DX001 (ip), vehicle: saline
[4] = dose: 100.0 mg/kg/injection, schedule: Q04DX002 (ip), vehicle: Klucel (hydroxypropylcellulose) (HPC)
[5] = dose: 200.0 mg/kg/injection, schedule: Q04DX002 (ip), vehicle: Klucel (hydroxypropylcellulose) (HPC)
[6] = dose: 400.0 mg/kg/injection, schedule: Q04DX002 (ip), vehicle: Klucel (hydroxypropylcellulose) (HPC)
[7] = dose: 50.0 mg/kg/injection, schedule: Q01DX009 (ip), vehicle: saline with Tween-80
[8] = dose: 200.0 mg/kg/injection, schedule: Q01DX009 (ip), vehicle: saline with Tween-80
[9] = dose: 100.0 mg/kg/injection, schedule: Q01DX001 (ip), vehicle: saline with Tween-80
[10] = dose: 200.0 mg/kg/injection, schedule: Q01DX001 (ip), vehicle: saline with Tween-80
[11] = dose: 400.0 mg/kg/injection, schedule: Q01DX001 (ip), vehicle: saline with Tween-80
[12] = dose: 100.0 mg/kg/injection, schedule: Q04DX002 (ip), vehicle: saline with Tween-80
[13] = dose: 200.0 mg/kg/injection, schedule: Q04DX002 (ip), vehicle: saline with Tween-80
[14] = dose: 400.0 mg/kg/injection, schedule: Q04DX002 (ip), vehicle: saline with Tween-80
[15] = dose: 100.0 mg/kg/injection, schedule: Q04DX003 (ip), vehicle: saline with Tween-80
[16] = dose: 200.0 mg/kg/injection, schedule: Q04DX003 (ip), vehicle: saline with Tween-80
[17] = dose: 400.0 mg/kg/injection, schedule: Q04DX003 (ip), vehicle: saline with Tween-80
[18] = dose: 75.0 mg/kg/injection, schedule: Q01DX009 (ip), vehicle: saline with Tween-80
[19] = dose: 150.0 mg/kg/injection, schedule: Q01DX009 (ip), vehicle: saline with Tween-80
[20] = dose: 300.0 mg/kg/injection, schedule: Q01DX009 (ip), vehicle: saline with Tween-80

Measured: T/C

CC(=O)Nc1nc2c(ncn2C2OCC(OC(C)=O)C(OC(C)=O)C2OC(C)=O)c(=O)[nH]1 (centres undefined) (tested in a mixture with another compound)
inactive: [1] 102 % of control | [2] 102 % of control | [3] 101 % of control

CCN(CCNC(=O)Nc1ccc(OC)cc1)c1ccccc1
inactive: dose: 100.0 mg/kg/injection, schedule: Q01DX009 (ip), vehicle: carboxymethylcellulose (CMC) 93 % of control and 100 % of control | [4] 103 % of control | dose: 100.0 mg/kg/injection, schedule: Q04DX002 (ip), vehicle: other 94 % of control and 98 % of control | dose: 100.0 mg/kg/injection, schedule: Q04DX003 (ip), vehicle: carboxymethylcellulose (CMC) 96 % of control | dose: 200.0 mg/kg/injection, schedule: Q01DX009 (ip), vehicle: carboxymethylcellulose (CMC) 93 % of control and 104 % of control | [5] 100 % of control | dose: 200.0 mg/kg/injection, schedule: Q04DX002 (ip), vehicle: other 91 % of control | dose: 200.0 mg/kg/injection, schedule: Q04DX003 (ip), vehicle: carboxymethylcellulose (CMC) 100 % of control | dose: 400.0 mg/kg/injection, schedule: Q01DX009 (ip), vehicle: carboxymethylcellulose (CMC) 96 % of control and 100 % of control | [6] 107 % of control | dose: 400.0 mg/kg/injection, schedule: Q04DX002 (ip), vehicle: other 102 % of control and 88 % of control | dose: 400.0 mg/kg/injection, schedule: Q04DX003 (ip), vehicle: carboxymethylcellulose (CMC) 96 % of control

CCC(CC)(CCN(C)C)c1ccccc1
inactive: dose: 50.0 mg/kg/injection, schedule: Q01DX001 (ip), vehicle: carboxymethylcellulose (CMC) 98 % of control | dose: 100.0 mg/kg/injection, schedule: Q01DX001 (ip), vehicle: carboxymethylcellulose (CMC) 98 % of control | dose: 200.0 mg/kg/injection, schedule: Q01DX001 (ip), vehicle: carboxymethylcellulose (CMC) 104 % of control

O=C(NCCCCCCNC(=O)Nc1ccccc1F)Nc1ccccc1F
inactive: dose: 100.0 mg/kg/injection, schedule: Q01DX009 (ip), vehicle: Klucel (hydroxypropylcellulose) (HPC) 100 % of control | dose: 200.0 mg/kg/injection, schedule: Q01DX009 (ip), vehicle: Klucel (hydroxypropylcellulose) (HPC) 89 % of control | dose: 400.0 mg/kg/injection, schedule: Q01DX009 (ip), vehicle: Klucel (hydroxypropylcellulose) (HPC) 92 % of control

Oc1cc(CN2CCCC2)c(O)cc1CN1CCCC1
inactive: dose: 75.0 mg/kg/injection, schedule: Q01DX001 (ip), vehicle: carboxymethylcellulose (CMC) 111 % of control | dose: 150.0 mg/kg/injection, schedule: Q01DX001 (ip), vehicle: carboxymethylcellulose (CMC) 105 % of control

CC1=NC(C)(C)CO1
inactive: [1] 101 % of control | [2] 97 % of control | [3] 95 % of control

COc1ccc(C(C)(C)CC(=O)O)cc1
inactive: [7] 97 % of control | dose: 100.0 mg/kg/injection, schedule: Q01DX009 (ip), vehicle: saline with Tween-80 100 % of control | [8] 90 % of control

CS(=O)(=O)NOCCCCONS(C)(=O)=O
inactive: [9] 103 % of control | [10] 91 % of control | [11] 92 % of control

Cc1cccc([N+](=O)[O-])c1-c1c(C)cccc1[N+](=O)[O-]
inactive: dose: 50.0 mg/kg/injection, schedule: Q01DX001 (ip), vehicle: Klucel (hydroxypropylcellulose) (HPC) 102 % of control | dose: 100.0 mg/kg/injection, schedule: Q01DX001 (ip), vehicle: Klucel (hydroxypropylcellulose) (HPC) 102 % of control | dose: 200.0 mg/kg/injection, schedule: Q01DX001 (ip), vehicle: Klucel (hydroxypropylcellulose) (HPC) 96 % of control

CC1(C)CC(N=Cc2ccccc2O)CC(C)(C)N1O.CC1(C)CC(N=Cc2ccccc2O)CC(C)(C)N1O.[Cu]
inactive: dose: 12.5 mg/kg/injection, schedule: Q04DX003 (ip), vehicle: saline 89 % of control | dose: 25.0 mg/kg/injection, schedule: Q04DX003 (ip), vehicle: saline 101 % of control | dose: 50.0 mg/kg/injection, schedule: Q04DX003 (ip), vehicle: saline 101 % of control

CC1CP(=O)(Cc2ccccc2)C(c2ccccc2)=C1O (centres undefined)
inactive: dose: 100.0 mg/kg/injection, schedule: Q04DX003 (ip), vehicle: Klucel (hydroxypropylcellulose) (HPC) 90 % of control | dose: 200.0 mg/kg/injection, schedule: Q04DX003 (ip), vehicle: Klucel (hydroxypropylcellulose) (HPC) 93 % of control | dose: 400.0 mg/kg/injection, schedule: Q04DX003 (ip), vehicle: Klucel (hydroxypropylcellulose) (HPC) 96 % of control

CCCCCCCCCC(=O)Nc1ccc(CC)cc1
inactive: [4] 94 % of control | [5] 101 % of control | [6] 111 % of control

Oc1c(CNCCCN2CCCC2)cc(Cl)c2cccnc12
inactive: dose: 100.0 mg/kg/injection, schedule: Q04DX002 (ip), vehicle: saline 97 % of control | dose: 200.0 mg/kg/injection, schedule: Q04DX002 (ip), vehicle: saline 97 % of control

CCCCCc1nc2c(c3c1CCCC3)CCCC2
inactive: dose: 75.0 mg/kg/injection, schedule: Q01DX001 (ip), vehicle: other 102 % of control | dose: 150.0 mg/kg/injection, schedule: Q01DX001 (ip), vehicle: other 96 % of control

CCOC(=O)C(=O)C(=O)OCC
inactive: [12] 101 % of control | [13] 107 % of control | [14] 88 % of control

CCC(C#N)(CC)c1ccccc1
inactive: dose: 50.0 mg/kg/injection, schedule: Q01DX001 (ip), vehicle: saline 113 % of control | [1] 107 % of control | [2] 89 % of control | [3] 101 % of control

CSC1SC(C)CC(C)S1 (centres undefined)
inactive: dose: 12.5 mg/kg/injection, schedule: Q04DX002 (ip), vehicle: Klucel (hydroxypropylcellulose) (HPC) 95 % of control | dose: 25.0 mg/kg/injection, schedule: Q04DX002 (ip), vehicle: Klucel (hydroxypropylcellulose) (HPC) 92 % of control | dose: 50.0 mg/kg/injection, schedule: Q04DX002 (ip), vehicle: Klucel (hydroxypropylcellulose) (HPC) 98 % of control

C[N+](C)(C)N=C1CCCCC1
inactive: [1] 104 % of control | [2] 104 % of control

O=C(O)c1ccccc1Nc1cccc(C(F)(F)F)c1
inactive: [15] 104 % of control | [16] 104 % of control | [17] 104 % of control

Cc1n[nH]c(C)c1Br
inactive: [18] 95 % of control | dose: 75.0 mg/kg/injection, schedule: Q04DX003 (ip), vehicle: saline with Tween-80 97 % of control | [19] 97 % of control | dose: 150.0 mg/kg/injection, schedule: Q04DX003 (ip), vehicle: saline with Tween-80 95 % of control | [20] 99 % of control | dose: 300.0 mg/kg/injection, schedule: Q04DX003 (ip), vehicle: saline with Tween-80 98 % of control

CCOC1c2cnc(C)n2C=CN1C(C)=O (centres undefined)
inactive: dose: 50.0 mg/kg/injection, schedule: Q01DX009 (ip), vehicle: water 96 % of control | dose: 100.0 mg/kg/injection, schedule: Q01DX009 (ip), vehicle: water 94 % of control | dose: 100.0 mg/kg/injection, schedule: Q04DX003 (ip), vehicle: water 116 % of control | dose: 200.0 mg/kg/injection, schedule: Q04DX003 (ip), vehicle: water 115 % of control

NC(N)=N/N=C\c1ccc2ccccc2c1
inactive: [15] 100 % of control | [17] 88 % of control

COC(=N)Cc1ccccc1
inactive: [18] 100 % of control | [19] 101 % of control | [20] 101 % of control

O=S(NOCc1ccccc1)c1ccccc1 (centres undefined)
inactive: [4] 107 % of control | [5] 107 % of control | [6] 111 % of control

O=C(Nc1ccc(S(=O)(=O)F)cc1)Oc1ccc([N+](=O)[O-])cc1
inactive: dose: 25.0 mg/kg/injection, schedule: Q01DX009 (ip), vehicle: saline with Tween-80 92 % of control and 93 % of control | dose: 50.0 mg/kg/injection, schedule: Q01DX001 (ip), vehicle: saline with Tween-80 103 % of control | [7] 92 % of control and 89 % of control | [9] 105 % of control | [12] 95 % of control | [15] 93 % of control | [10] 97 % of control | [8] 98 % of control | [13] 96 % of control | [16] 98 % of control | [11] 105 % of control | [14] 88 % of control | [17] 103 % of control
